Assay results from PubChem BioAssay AID1919015 (Molecular Pharmacology Branch, DTP, NCI, 2023).

Tested on: OVCAR-5 complex spheroids with HUVEC/MSC, viability, % test/control
Assay: Anticancer human tumor OVCAR-5 cell line growth inhibition [AhR];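 further: spheroids exposed to compounds for 7 days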;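 on viability, T/C: 100% = DMSO vehicle control wells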
Conditions: for IC50: curve of first compound; for viability, T/C: stronger effect = lower value
Outline: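 Agents were dosed in half-log steps down from roughly clinical Cmax, or from 10 microM where Cmax was unknown, alone and with AhR antagonists. Read-out: percent test/control growth of tumor spheroids containing HUVEC and MSC stromal cells.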

[1] = second compound 0.1 µM, first compound 0.0316 µM
[2] = second compound 0.1 µM, first compound 0.1 µM
[3] = second compound 0.1 µM, first compound 0.316 µM
[4] = second compound 0.1 µM, first compound 1 µM
[5] = second compound 0.1 µM, first compound 3.16 µM
[6] = second compound 0.1 µM, first compound 10 µM
[7] = second compound 0.316 µM, first compound 0.0316 µM
[8] = second compound 0.316 µM, first compound 0.1 µM
[9] = second compound 0.316 µM, first compound 0.316 µM
[10] = second compound 0.316 µM, first compound 1 µM
[11] = second compound 0.316 µM, first compound 3.16 µM
[12] = second compound 0.316 µM, first compound 10 µM
[13] = second compound 1 µM, first compound 0.0316 µM
[14] = second compound 1 µM, first compound 0.1 µM
[15] = second compound 1 µM, first compound 0.316 µM
[16] = second compound 1 µM, first compound 1 µM
[17] = second compound 1 µM, first compound 3.16 µM
[18] = second compound 1 µM, first compound 10 µM
[19] = second compound 3.16 µM, first compound 0.0316 µM
[20] = second compound 3.16 µM, first compound 0.1 µM
[21] = second compound 3.16 µM, first compound 0.316 µM
[22] = second compound 3.16 µM, first compound 1 µM
[23] = second compound 3.16 µM, first compound 3.16 µM
[24] = second compound 3.16 µM, first compound 10 µM
[25] = second compound 10 µM, first compound 0.0316 µM
[26] = second compound 10 µM, first compound 0.1 µM
[27] = second compound 10 µM, first compound 0.316 µM
[28] = second compound 10 µM, first compound 1 µM
[29] = second compound 10 µM, first compound 3.16 µM
[30] = second compound 10 µM, first compound 10 µM

| Compound | IC50 (second compound 0.1 µM) | IC50 (second compound 0.316 µM) | IC50 (second compound 1 µM) | IC50 (second compound 3.16 µM) | IC50 (second compound 10 µM) | viability, T/C [1] | viability, T/C [2] | viability, T/C [3] | viability, T/C [4] | viability, T/C [7] | viability, T/C [8] | viability, T/C [9] | viability, T/C [10] | viability, T/C [13] | viability, T/C [14] | viability, T/C [15] | viability, T/C [16] | viability, T/C [19] | viability, T/C [20] | viability, T/C [21] | other results |
| --- | --- | --- | --- | --- | --- | --- | --- | --- | --- | --- | --- | --- | --- | --- | --- | --- | --- | --- | --- | --- | --- |
| CC1COCCN1c1cc(C2(S(C)(=N)=O)CC2)nc(-c2ccnc3[nH]ccc23)n1 (stereo not given) + CC(CO)NC(=O)c1cc(-c2ccc(Cl)cc2)nn(-c2cnn(C)c2)c1=O | 9070 nM | 9900 nM | > 10000 nM | 8950 nM | 6640 nM | 106% | 105% | 104% | 101% | 109% | 105% | 107% | 108% | 116% | 112% | 112% | 109% | 108% | 101% | 100% | viability, T/C [5]: 80.9%; viability, T/C [6]: 47.1%; viability, T/C [11]: 81.6%; viability, T/C [12]: 49.7%; viability, T/C [17]: 89.9%; viability, T/C [18]: 53%; viability, T/C [22]: 93.1%; viability, T/C [23]: 77.2%; viability, T/C [24]: 46.7%; viability, T/C [25]: 96.1%; viability, T/C [26]: 97.5%; viability, T/C [27]: 95.4%; viability, T/C [28]: 83.8%; viability, T/C [29]: 61.5%; viability, T/C [30]: 43.7% |
| COc1ccc([C@@H](O)c2cc(-c3ncnc4cc(N5CCOCC5)ccc34)c(F)cc2Cl)nn1 + CC(CO)NC(=O)c1cc(-c2ccc(Cl)cc2)nn(-c2cnn(C)c2)c1=O | 2570 nM | 2940 nM | 3610 nM | 3360 nM | 2350 nM | 101% | 107% | 97.6% | 75% | 105% | 105% | 102% | 80.4% | 114% | 115% | 107% | 87.4% | 99.2% | 102% | 87.3% | viability, T/C [5]: 45.3%; viability, T/C [6]: 23.8%; viability, T/C [11]: 48.6%; viability, T/C [12]: 24.4%; viability, T/C [17]: 52.9%; viability, T/C [18]: 28.6%; viability, T/C [22]: 77.5%; viability, T/C [23]: 50.5%; viability, T/C [24]: 27.7%; viability, T/C [25]: 98%; viability, T/C [26]: 96.6%; viability, T/C [27]: 85.4%; viability, T/C [28]: 69%; viability, T/C [29]: 43.3%; viability, T/C [30]: 26.2% |
| NS(=O)(=O)OCC1CC(n2ccc3c(NC4CCc5ccccc54)ncnc32)CC1O (stereo not given) + Cc1ccccc1N=Nc1ccc(NC(=O)c2ccnn2C)c(C)c1 | 201 nM | 178 nM | 141 nM | 96.3 nM | 94.6 nM | 96.4% | 66.9% | 40.8% | 16.2% | 88.3% | 63.3% | 37.8% | 14.3% | 82.5% | 55.6% | 36.2% | 14.2% | 66.6% | 47.7% | 32.2% | viability, T/C [5]: 9.98%; viability, T/C [6]: 10.5%; viability, T/C [11]: 11.1%; viability, T/C [12]: 9.31%; viability, T/C [17]: 9.92%; viability, T/C [18]: 9.81%; viability, T/C [22]: 12.7%; viability, T/C [23]: 9.52%; viability, T/C [24]: 8.47%; viability, T/C [25]: 69.5%; viability, T/C [26]: 47.7%; viability, T/C [27]: 29.2%; viability, T/C [28]: 11%; viability, T/C [29]: 7.66%; viability, T/C [30]: 7.56% |
| Nc1ccccc1NC(=O)c1ccc(CNC(=O)OCc2cccnc2)cc1 + CC(CO)NC(=O)c1cc(-c2ccc(Cl)cc2)nn(-c2cnn(C)c2)c1=O | 481 nM | 514 nM | 512 nM | 444 nM | 397 nM | 92% | 80.7% | 59.7% | 32.3% | 95.9% | 86.6% | 63.2% | 31% | 95.2% | 85.3% | 63.6% | 30.9% | 85.9% | 77.8% | 59.7% | viability, T/C [5]: 19.5%; viability, T/C [6]: 7.46%; viability, T/C [11]: 18.3%; viability, T/C [12]: 7.56%; viability, T/C [17]: 17.4%; viability, T/C [18]: 7.87%; viability, T/C [22]: 27.9%; viability, T/C [23]: 14.6%; viability, T/C [24]: 6.5%; viability, T/C [25]: 83.9%; viability, T/C [26]: 81.3%; viability, T/C [27]: 55.1%; viability, T/C [28]: 24.6%; viability, T/C [29]: 12.8%; viability, T/C [30]: 4.72% |
| Nc1ncn(C2CC(O)C(CO)O2)c(=O)n1 (stereo not given) + Cc1ccccc1N=Nc1ccc(NC(=O)c2ccnn2C)c(C)c1 | > 1000 nM | > 1000 nM | > 1000 nM | > 1000 nM | > 1000 nM | 88.3% | 76.4% | 65% | 64.5% | 94.3% | 79.6% | 69.3% | 59.2% | 98.2% | 81.4% | 68.9% | 62% | 100% | 85.9% | 72% | viability, T/C (second compound 0.1 µM, first compound 0.00316 µM): 99%; viability, T/C (second compound 0.1 µM, first compound 0.01 µM): 98.3%; viability, T/C (second compound 0.316 µM, first compound 0.00316 µM): 104%; viability, T/C (second compound 0.316 µM, first compound 0.01 µM): 104%; viability, T/C (second compound 1 µM, first compound 0.00316 µM): 108%; viability, T/C (second compound 1 µM, first compound 0.01 µM): 105%; viability, T/C (second compound 3.16 µM, first compound 0.00316 µM): 105%; viability, T/C (second compound 3.16 µM, first compound 0.01 µM): 109%; viability, T/C [22]: 62.2%; viability, T/C (second compound 10 µM, first compound 0.00316 µM): 104%; viability, T/C (second compound 10 µM, first compound 0.01 µM): 109%; viability, T/C [25]: 100%; viability, T/C [26]: 82.5%; viability, T/C [27]: 68.1%; viability, T/C [28]: 61.4% |
| NS(=O)(=O)OCC1CC(n2ccc3c(NC4CCc5ccccc54)ncnc32)CC1O (stereo not given) + CC(CO)NC(=O)c1cc(-c2ccc(Cl)cc2)nn(-c2cnn(C)c2)c1=O | 196 nM | 159 nM | 169 nM | 174 nM | 204 nM | 92.9% | 66.1% | 40.3% | 16.1% | 79.5% | 58.9% | 37.1% | 14.8% | 85.1% | 61% | 37.6% | 14.9% | 72.1% | 65.3% | 33.5% | viability, T/C [5]: 13%; viability, T/C [6]: 11.3%; viability, T/C [11]: 11.2%; viability, T/C [12]: 11.5%; viability, T/C [17]: 11.5%; viability, T/C [18]: 11.6%; viability, T/C [22]: 13.7%; viability, T/C [23]: 11.3%; viability, T/C [24]: 11.2%; viability, T/C [25]: 75.7%; viability, T/C [26]: 65.7%; viability, T/C [27]: 40.7%; viability, T/C [28]: 15.7%; viability, T/C [29]: 12.6%; viability, T/C [30]: 12.6% |
| COc1cccc2c1C(=O)c1c(O)c3c(c(O)c1C2=O)CC(O)(C(=O)CO)CC3OC1CC(N)C(O)C(C)O1 (stereo not given) + Cc1cncc(-c2nc(NCCc3c[nH]c4ccccc34)c3ncn(C(C)C)c3n2)c1 | 310 nM | 240 nM | 241 nM | < 31.6 nM | < 31.6 nM | 63.7% | 54.8% | 49% | 27.9% | 61.8% | 54% | 47.3% | 26.9% | 55.4% | 51.6% | 48.2% | 24.3% | 42.7% | 42.8% | 39.3% | viability, T/C [5]: 1.4%; viability, T/C [6]: 1.85%; viability, T/C [11]: 2.85%; viability, T/C [12]: 1.79%; viability, T/C [17]: 1.27%; viability, T/C [18]: 1.8%; viability, T/C [22]: 19.3%; viability, T/C [23]: 1.16%; viability, T/C [24]: 1.68%; viability, T/C [25]: 5.12%; viability, T/C [26]: 5.58%; viability, T/C [27]: 13.1%; viability, T/C [28]: 4.16%; viability, T/C [29]: 1.37%; viability, T/C [30]: 1.89% |
